For two compounds, IC50 results are on record in paper PMC8219539 (Journal of Atherosclerosis and Thrombosis, 2020).

In general, IC50 refers to the midpoint of a concentration-inhibition curve.

In this assay the target is S1P receptor 2 (S1P2/EDG-5) (Homo sapiens, UniProt O95136). As to the kind of experiment: Fura2 intracellular Ca2+ assay. The class given is cell-based.
Sequence of S1P receptor 2 (S1P2/EDG-5) (O95136 whole entry): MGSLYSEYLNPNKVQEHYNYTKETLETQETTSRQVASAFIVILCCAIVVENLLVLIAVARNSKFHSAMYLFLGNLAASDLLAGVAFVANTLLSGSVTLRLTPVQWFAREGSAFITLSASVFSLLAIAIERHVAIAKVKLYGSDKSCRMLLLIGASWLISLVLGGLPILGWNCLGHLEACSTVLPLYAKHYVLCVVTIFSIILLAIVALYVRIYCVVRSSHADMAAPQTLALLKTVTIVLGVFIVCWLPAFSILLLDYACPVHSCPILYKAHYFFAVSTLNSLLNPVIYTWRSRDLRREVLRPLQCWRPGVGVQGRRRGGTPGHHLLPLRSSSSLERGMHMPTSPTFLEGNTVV

ONO-5430514: the IC50 was determined as 5.7 nM.
In the case of `Cc1nn(C)c2nc(NNC(=O)Nc3c(Cl)cncc3Cl)cc(C(C)C)c12` [JTE-013] it was 5.3 nM.
